In patent US9409905B2, “Antibacterial compounds and methods for use” (PTC THERAPEUTICS, INC., priority 2011, dated 2016):
≈ marks a conversion by molar mass, not a printed value.

Experiments:
[1] = tested on: Pseudomonas aeruginosa (P. aeruginosa) 27853; experiment: Antibacterial activity, MIC (Table 5); assay type: cell-based; settings: P. aeruginosa 27853, read-out: MIC, 27853
Outline: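 Activity was measured by microbroth dilution. The MIC, in μg/mL, is the lowest drug concentration that prevents macroscopically visible growth under the test conditions.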

[2] = tested on: Haemophilus influenzae (H. influenzae) 49247; experiment: Antibacterial activity, MIC (Table 6); assay type: cell-based
Source text: (§1) The antibacterial activity from a microbroth dilution method may be presented as the minimum inhibitory concentration (MIC in μg/mL). The MIC value is the lowest concentration of drug which prevents macroscopically visible growth under test conditions.
(§2) Antibacterial activity of test compounds against the Gram-negative bacteria Haemophilus influenzae (H. influenzae) 49247 is shown in Table 6, Moraxella catarrhalis (M. catarrhalis) 25238 is shown in Table 7 and Neisseria meningitidis (N. meningitidis) 13090 is shown in Table 8.

[3] = tested on: E. coli LZ3111; experiment: Antibacterial activity, MIC, quinolone resistant strain (Table 2); assay type: cell-based; settings: Escherichia coli, LZ3111, read-out: MIC LZ3111
Outline: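 Microbroth dilution method; MIC (μg/mL) is the lowest drug concentration preventing macroscopically visible growth under test conditions.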

[4] = tested on: Staphylococcus aureus (S. aureus) 29213; experiment: Antibacterial activity, microbroth dilution MIC (Table 1); assay type: cell-based; settings: microbroth dilution, Gram-positive S. aureus 29213, read-out: MIC, 29213
Outline: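 Read-out: visual absence of growth. The lowest concentration meeting this gives the MIC, expressed in μg/mL, with microbroth dilution as the method.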

[5] = tested on: Escherichia coli (E. coli) BAS849; experiment: as above; assay type: cell-based; settings: microbroth dilution, super sensitive Gram-negative E. coli BAS849, read-out: MIC, BAS849
Outline: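 Broth microdilution against S. aureus 29213, E. coli 25922 and hypersensitive E. coli BAS849. MIC in μg/mL is the lowest drug concentration preventing macroscopically visible growth under test conditions.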

[6] = tested on: Neisseria meningitidis (N. meningitidis) 13090; experiment: Antibacterial activity, MIC (Table 8); assay type: cell-based
Source text: as §1, §2

[7] = tested on: E. coli ELZ4251; experiment: Antibacterial activity, MIC, multi-drug resistant clinical isolate (Table 3); assay type: cell-based; settings: Escherichia coli
Outline: (§3)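 Broth microdilution assay; MIC reported in μg/mL as the lowest drug concentration preventing macroscopically visible growth under test conditions.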

[8] = tested on: E. coli ELZ4000; experiment: as above; assay type: cell-based; settings: Escherichia coli, ELZ4000, read-out: MIC ELZ4000
Outline: as §3

[9] = tested on: E. coli 25922; experiment: Antibacterial activity, microbroth dilution MIC (Table 1); assay type: cell-based, Escherichia coli; settings: Escherichia coli; microbroth dilution; control Gram-negative E. coli 25922 strain; read-out: MIC, 25922
Outline: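 Values are MICs (μg/mL): the smallest drug amount at which macroscopically visible bacterial growth is absent under assay conditions, from a microdilution method in broth.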

[10] = tested on: Acinetobacter baumannii (A. baumannii) BAA747; experiment: Antibacterial activity, MIC (Table 4); assay type: cell-based; settings: A. baumannii BAA747, read-out: MIC, BAA747
Outline: (§4)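 MIC (μg/mL) by microbroth dilution, taken as the lowest drug concentration preventing macroscopically visible growth. MXX strains are multi-drug resistant clinical isolates.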

[11] = tested on: Klebsiella pneumoniae (K. pneumoniae) 35657; experiment: Antibacterial activity, MIC (Table 4); assay type: cell-based; settings: K. pneumoniae 35657, read-out: MIC, 35657
Outline: as §4

[12] = tested on: A. baumannii MXX2240; experiment: Antibacterial activity, MIC, resistant strain (Table 4); assay type: cell-based; settings: Acinetobacter baumannii, MXX2240; resistant A. baumannii MMX2240, multi-drug resistant clinical isolate; read-out: MIC, MMX2240
Outline: as §4

[13] = tested on: K. pneumoniae MXX1232; experiment: as above; assay type: cell-based; settings: Klebsiella pneumoniae, MXX1232; resistant K. pneumoniae MMX1232, multi-drug resistant clinical isolate; read-out: MIC, MMX1232
Outline: as §4

[14] = tested on: Moraxella catarrhalis (M. catarrhalis) 25238; experiment: Antibacterial activity, MIC (Table 7); assay type: cell-based
Source text: as §1, §2

Row | SMILES | MIC [1] | MIC [2] | MIC [3] | MIC [4] | MIC [5] | MIC [6] | MIC [7] | MIC [8] | MIC [9] | MIC [10] | MIC [11] | MIC [12] | MIC [13] | MIC [14]
1 | CCc1cc(C(=O)O)c(=O)[nH]c1-c1ccc2c(c1)CCCN2C [Cpd 1, 5-ethyl-6-(1-methyl-1,2,3,4-tetrahydroquinolin-6-yl)-2-oxo-1,2-dihydropyridine-3-carboxylic acid] | 12.5 to 150 µg/mL (≈ 40 to 480 µM) | < 1 µg/mL | 12.5 to 150 µg/mL (≈ 40 to 480 µM) | 12.5 to 150 µg/mL (≈ 40 to 480 µM) | < 1 µg/mL | < 1 µg/mL | 12.5 to 150 µg/mL (≈ 40 to 480 µM) | 12.5 to 150 µg/mL (≈ 40 to 480 µM) | 1 to 3.5 µg/mL (≈ 3.2 to 11.2 µM) |  |  |  |  | 
2 | CCc1cc(C(=O)O)c(=O)[nH]c1-c1ccc2c(c1)CCN2C [Cpd 5, 5-ethyl-6-(1-methylindolin-5-yl)-2-oxo-1,2-dihydropyridine-3-carboxylic acid] | 12.5 to 150 µg/mL (≈ 41.9 to 503 µM) | < 1 µg/mL | 12.5 to 150 µg/mL (≈ 41.9 to 503 µM) | 12.5 to 150 µg/mL (≈ 41.9 to 503 µM) | < 1 µg/mL | < 1 µg/mL | 12.5 to 150 µg/mL (≈ 41.9 to 503 µM) | 12.5 to 150 µg/mL (≈ 41.9 to 503 µM) | 3.5 to 12.5 µg/mL (≈ 11.7 to 41.9 µM) | 1 to 3.5 µg/mL (≈ 3.35 to 11.7 µM) | 3.5 to 12.5 µg/mL (≈ 11.7 to 41.9 µM) | 12.5 to 150 µg/mL (≈ 41.9 to 503 µM) | 12.5 to 150 µg/mL (≈ 41.9 to 503 µM) | 
3 | CCc1c(-c2ccc3c(c2)CCN3C)[nH]c(=O)c(C(=O)O)c1O [Cpd 6, 5-ethyl-4-hydroxy-6-(1-methylindolin-5-yl)-2-oxo-1,2-dihydropyridine-3-carboxylic acid] | 12.5 to 150 µg/mL (≈ 39.8 to 477 µM) | < 1 µg/mL | 12.5 to 150 µg/mL (≈ 39.8 to 477 µM) | 3.5 to 12.5 µg/mL (≈ 11.1 to 39.8 µM) | < 1 µg/mL | < 1 µg/mL | 12.5 to 150 µg/mL (≈ 39.8 to 477 µM) | 12.5 to 150 µg/mL (≈ 39.8 to 477 µM) | 3.5 to 12.5 µg/mL (≈ 11.1 to 39.8 µM) | 1 to 3.5 µg/mL (≈ 3.18 to 11.1 µM) | 12.5 to 150 µg/mL (≈ 39.8 to 477 µM) | 1 to 3.5 µg/mL (≈ 3.18 to 11.1 µM) | 12.5 to 150 µg/mL (≈ 39.8 to 477 µM) | 
4 | CCc1cc(C(=O)O)c(=O)[nH]c1-c1ccc2c(ccn2C)c1 [Cpd 21, 5-ethyl-6-(1-methyl-1H-indol-5-yl)-2-oxo-1,2-dihydropyridine-3-carboxylic acid] | 12.5 to 150 µg/mL (≈ 42.2 to 506 µM) | < 1 µg/mL | 12.5 to 150 µg/mL (≈ 42.2 to 506 µM) | 3.5 to 12.5 µg/mL (≈ 11.8 to 42.2 µM) | < 1 µg/mL | < 1 µg/mL | 12.5 to 150 µg/mL (≈ 42.2 to 506 µM) | 12.5 to 150 µg/mL (≈ 42.2 to 506 µM) | < 1 µg/mL | < 1 µg/mL | < 1 µg/mL | 12.5 to 150 µg/mL (≈ 42.2 to 506 µM) | 12.5 to 150 µg/mL (≈ 42.2 to 506 µM) | 
5 | CCc1c(-c2ccc3c(ccn3C)c2)[nH]c(=O)c(C(=O)O)c1O [Cpd 22, 5-ethyl-4-hydroxy-6-(1-methyl-1H-indol-5-yl)-2-oxo-1,2-dihydropyridine-3-carboxylic acid] | 12.5 to 150 µg/mL (≈ 40 to 480 µM) | < 1 µg/mL | 1 to 3.5 µg/mL (≈ 3.2 to 11.2 µM) | 1 to 3.5 µg/mL (≈ 3.2 to 11.2 µM) | < 1 µg/mL | < 1 µg/mL | 3.5 to 12.5 µg/mL (≈ 11.2 to 40 µM) | 3.5 to 12.5 µg/mL (≈ 11.2 to 40 µM) | < 1 µg/mL | < 1 µg/mL | 1 to 3.5 µg/mL (≈ 3.2 to 11.2 µM) | < 1 µg/mL | 12.5 to 150 µg/mL (≈ 40 to 480 µM) | < 1 µg/mL
6 | CCc1c(-c2cnc3c(ccn3C)c2)[nH]c(=O)c(C(=O)O)c1O [Cpd 32, 5-ethyl-4-hydroxy-6-(1-methyl-1H-pyrrolo[2,3-b]pyridin-5-yl)-2-oxo-1,2-dihydropyridine-3-carboxylic acid] | 12.5 to 150 µg/mL (≈ 39.9 to 479 µM) | 1 to 3.5 µg/mL (≈ 3.19 to 11.2 µM) | 1 to 3.5 µg/mL (≈ 3.19 to 11.2 µM) | 3.5 to 12.5 µg/mL (≈ 11.2 to 39.9 µM) | < 1 µg/mL | < 1 µg/mL | < 1 µg/mL | 1 to 3.5 µg/mL (≈ 3.19 to 11.2 µM) | 12.5 to 150 µg/mL (≈ 39.9 to 479 µM) | 12.5 to 150 µg/mL (≈ 39.9 to 479 µM) | 12.5 to 150 µg/mL (≈ 39.9 to 479 µM) | < 1 µg/mL | 12.5 to 150 µg/mL (≈ 39.9 to 479 µM) | 1 to 3.5 µg/mL (≈ 3.19 to 11.2 µM)
7 | Cn1ccc2cc(-c3[nH]c(=O)c(C(=O)O)c(O)c3C3CC3)ccc21 [Cpd 36, 5-cyclopropyl-4-hydroxy-6-(1-methyl-1H-indol-5-yl)-2-oxo-1,2-dihydropyridine-3-carboxylic acid] | 12.5 to 150 µg/mL (≈ 38.5 to 462 µM) | 3.5 to 12.5 µg/mL (≈ 10.8 to 38.5 µM) | 3.5 to 12.5 µg/mL (≈ 10.8 to 38.5 µM) | 3.5 to 12.5 µg/mL (≈ 10.8 to 38.5 µM) | 1 to 3.5 µg/mL (≈ 3.08 to 10.8 µM) | < 1 µg/mL | 1 to 3.5 µg/mL (≈ 3.08 to 10.8 µM) | 3.5 to 12.5 µg/mL (≈ 10.8 to 38.5 µM) | 12.5 to 150 µg/mL (≈ 38.5 to 462 µM) | 12.5 to 150 µg/mL (≈ 38.5 to 462 µM) | 12.5 to 150 µg/mL (≈ 38.5 to 462 µM) | 1 to 3.5 µg/mL (≈ 3.08 to 10.8 µM) | 12.5 to 150 µg/mL (≈ 38.5 to 462 µM) | 1 to 3.5 µg/mL (≈ 3.08 to 10.8 µM)
